Literature values as cited in patent publication US20090318293A1, “AGRICULTURAL COMPOSITION” (PLANT IMPACT PLC, priority 2005, published 2009).

Tested on: cotyledon growth, chlorophyll biosynthesis and cell elongation
Conditions: on cotyledon growth, chlorophyll biosynthesis and cell elongation in the systems studied

Structure (SMILES): Cn1c(=O)c2c(ncn2C)n(C)c1=O [caffeine, 3,7-Dihydro-1,3,7-trimethyl-1H-purine-2,6-dione]
- cytokinin-like effect: weak cytokinin-like effect
